# Assay results: patent US10682371B2, “Small molecule conjugates specifically activated in tumor microenvironment for targeting and use thereof” (priority 2014, dated 2020)
# Columns and labels:
# [1] = system: Human pancreatic cancer Panc-1 tumor tissue homogenate; type: biochemical; conditions: Human pancreatic cancer Panc-1 tumor tissue homogenate (30 μg/ml); 1 mg/ml compound
# In short: (§1)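 Homogenized tissue (100 μg) is acidified to pH6.0. Test compound is then added at 1 mg/ml, and the mixture is held at 37° C so that the proteases present can activate it.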
# [2] = system: Human liver cancer Hepg2 tumor tissue homogenate; type: biochemical; conditions: Human liver cancer Hepg2 tumor tissue homogenate (30 μg/ml); 1 mg/ml compound
# In short: as §1
# [3] = system: Human non-small cell lung cancer A549 tumor tissue homogenate; type: biochemical; conditions: Human non-small cell lung cancer A549 tumor tissue homogenate (30 μg/ml); 1 mg/ml compound
# In short: as §1
# [4] = system: Human chronic leukemia K562 tumor tissue homogenate; type: biochemical; conditions: Human chronic leukemia K562 tumor tissue homogenate (30 μg/ml); 1 mg/ml compound
# In short: as §1
# [5] = system: Human ovarian cancer SK-OV-3 tumor tissue homogenate; type: biochemical; conditions: Human ovarian cancer SK-OV-3 tumor tissue homogenate (30 μg/ml); 1 mg/ml compound
# In short: as §1
# [6] = system: Human colon cancer HT-29 tumor tissue homogenate; type: biochemical; conditions: Human colon cancer HT-29 tumor tissue homogenate (30 μg/ml); 1 mg/ml compound
# In short: as §1
# [7] = system: Human renal cancer OS-RC-2 tumor tissue homogenate; type: biochemical; conditions: Human renal cancer OS-RC-2 tumor tissue homogenate (30 μg/ml); 1 mg/ml compound
# In short: as §1
# [8] = system: Human prostate cancer PC-3 tumor tissue homogenate; type: biochemical; conditions: Human prostate cancer PC-3 tumor tissue homogenate (30 μg/ml); 1 mg/ml compound
# In short: as §1
# [9] = system: D121 lung tumor cells; type: in vivo, C57 mice
# In short: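 Endpoint is tumor inhibition rate from tumor size (mm^3) after weekly drug treatment for 4 weeks, begun once s.c. tumors from 10^6 live D121 cells reached 0.3-0.4 cm. Before challenge, C57 mice received three i.p. doses of 5×10^5 irradiated D121 cells, two weeks apart, or saline.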
# [10] = system: tumor CD8+ T cells; type: in vivo, C57 mice; conditions: D121 immunized C57 mice, 13.2 μmol/kg; ratio of CD8 positive cells in CD45 positive cells of tumor
# In short: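 Flow cytometric ratio of CD8⁺ to CD45⁺ cells in dissociated tumour. Cell suspensions were labelled with CD45-PE and CD8-FITC for 1 h at room temperature, then washed twice in phosphate buffer with 1% fetal bovine serum.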
# [11] = system: Human heart; type: biochemical; conditions: Human heart homogenate; 1 mg/ml compound
# [12] = system: Human breast cancer MDA-MB435 tumor tissue homogenate; type: biochemical; conditions: Human breast cancer MDA-MB435 tumor tissue homogenate (30 μg/ml); 1 mg/ml compound
# In short: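 For protease-mediated activation, 100 μg of MDA-MB435 breast cancer tumor homogenate, acidified to pH6.0, received compound at 1 mg/ml at 37° C.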
structure (smiles),measurement,setting,value
"CCCCCOC(=O)Nc1nc(=O)n([C@@H]2O[C@H](C)[C@@H](OC(=O)OCc3ccc(NC(=O)[C@H](CC(N)=O)NC(=O)[C@H](C)NC(=O)[C@H](C)NC(=O)CCCCCCC(=O)NO)cc3)[C@H]2O)cc1F [Compound S3, 4-N—(N—(N—(N-(8-(N-hydroxylamino)-1,8-octandioic acid-1-monoacyl)-L-alanyl)-L-alanyl)-L-asparaginyl)-amino benzyl alcohol-capecitabine-carbonic acid diester]",Activation Efficiencies (%),[1],91.6%
same,Activation Efficiencies (%),[2],94.5%
same,Activation Efficiencies (%),[3],80.7%
same,Activation Efficiencies (%),[4],93.2%
same,Activation Efficiencies (%),[5],94.3%
same,Activation Efficiencies (%),[6],81.7%
same,Activation Efficiencies (%),[7],67.4%
same,Activation Efficiencies (%),[8],98.3%
same,Size of tumor (mm^3) Day 18,"[9]; D121 immunized C57 mice, 13.2 μmol/kg weekly, PDL1 antibody 5 μg/kg where combined, Day 18",425.67 ± 126.67 mm^3
same,"Treatment effects on C57 mice, in words",[9]; compared to the control group and the other treatment groups,greatly improved
same,CD8: CD45 (%),[10],18.4%
same,Activation Efficiencies (%),[11],1.6%
same,Activation Efficiencies (%),[12],70.1%
